Mass density data for 10 compounds are collected here from the NIST ThermoML archive (doi:10.1021/je201289w).

Numbers after ± are expanded uncertainties.

The term mass density denotes the mass of a sample divided by its volume.

The conditions of the first data set: 318.15 K; 101.33 kPa; Liquid; Vibrating tube method.
With `CCn1cc[n+](C)c1.O=S(=O)([O-])O` [1-ethyl-3-methylimidazolium hydrogen sulfate], the mass density was found to be 1354.6 ± 2.1 kg/m3.
Still for that read-out and setting: next, `CCn1cc[n+](C)c1.F[B-](F)(F)F` [1-ethyl-3-methylimidazolium tetrafluoroborate]: 1265.3 ± 1.8 kg/m3; `CCn1cc[n+](C)c1.N#C[S-]` [1-ethyl-3-methylimidazolium thiocyanate]: 1103.3 ± 1.4 kg/m3.
As for `CCn1cc[n+](C)c1.CS(=O)(=O)[O-]` [1-ethyl-3-methylimidazolium methanesulfonate], the mass density came to 1228.2 ± 1.7 kg/m3.
On to `CCC[N+]1(C)CCCC1.O=S(=O)([N-]S(=O)(=O)C(F)(F)F)C(F)(F)F`, for which the mass density was 1409.3 ± 2.3 kg/m3.

The same data set, now with this note: 323.15 K; 101.33 kPa; Liquid; Vibrating tube method.
Regarding `CCn1cc[n+](C)c1.O=S(=O)([N-]S(=O)(=O)C(F)(F)F)C(F)(F)F`, the mass density is given as 1493.3 ± 2.6 kg/m3.
On to `CCOS(=O)(=O)[O-].CCn1cc[n+](C)c1` [1-ethyl-3-methylimidazolium ethyl sulfate], for which the mass density is on record as 1220.9 ± 1.7 kg/m3.
Still for that read-out and setting: next, `CCCCn1cc[n+](C)c1.O=S(=O)([N-]S(=O)(=O)C(F)(F)C(F)(F)C(F)(F)C(F)(F)F)C(F)(F)C(F)(F)C(F)(F)C(F)(F)F`: 1581.6 ± 2.9 kg/m3; `CCn1cc[n+](C)c1.N#C[B-](C#N)(C#N)C#N` [1-ethyl-3-methylimidazolium tetracyanoborate]: 1009.1 ± 1.1 kg/m3.
On the same count and under the same terms, to `CCn1cc[n+](C)c1.N#CN=C=[N-]` [1-ethyl-3-methylimidazolium dicyanamide] belongs 1084.8 ± 1.3 kg/m3; to `CCn1cc[n+](C)c1.O=S(=O)([O-])O` [1-ethyl-3-methylimidazolium hydrogen sulfate], 1351.5 ± 2.1 kg/m3; to `CCn1cc[n+](C)c1.F[B-](F)(F)F` [1-ethyl-3-methylimidazolium tetrafluoroborate], 1261.6 ± 1.8 kg/m3.
The same measure, in the same setting: to `CCn1cc[n+](C)c1.N#C[S-]` [1-ethyl-3-methylimidazolium thiocyanate] belongs 1100.3 ± 1.4 kg/m3.
With `CCn1cc[n+](C)c1.CS(=O)(=O)[O-]` [1-ethyl-3-methylimidazolium methanesulfonate], the mass density was 1224.8 ± 1.7 kg/m3.
Still for that read-out and setting: to `CCC[N+]1(C)CCCC1.O=S(=O)([N-]S(=O)(=O)C(F)(F)F)C(F)(F)F` belongs 1404.8 ± 2.3 kg/m3.

The same data set, now with this note: 328.15 K; 101.33 kPa; Liquid; Vibrating tube method.
With `CCn1cc[n+](C)c1.O=S(=O)([N-]S(=O)(=O)C(F)(F)F)C(F)(F)F`, the mass density was found to be 1488.4 ± 2.6 kg/m3.
In the case of `CCOS(=O)(=O)[O-].CCn1cc[n+](C)c1` [1-ethyl-3-methylimidazolium ethyl sulfate], the mass density was 1217.6 ± 1.7 kg/m3.
For `CCCCn1cc[n+](C)c1.O=S(=O)([N-]S(=O)(=O)C(F)(F)C(F)(F)C(F)(F)C(F)(F)F)C(F)(F)C(F)(F)C(F)(F)C(F)(F)F`, the mass density is 1575.8 ± 2.9 kg/m3.
For `CCn1cc[n+](C)c1.N#C[B-](C#N)(C#N)C#N` [1-ethyl-3-methylimidazolium tetracyanoborate], the mass density is 1005.2 ± 1.1 kg/m3.
In the case of `CCn1cc[n+](C)c1.N#CN=C=[N-]` [1-ethyl-3-methylimidazolium dicyanamide], the mass density was determined as 1081.5 ± 1.3 kg/m3.
For the compound `CCn1cc[n+](C)c1.O=S(=O)([O-])O` [1-ethyl-3-methylimidazolium hydrogen sulfate], the mass density was 1348.5 ± 2.1 kg/m3.
`CCn1cc[n+](C)c1.F[B-](F)(F)F` [1-ethyl-3-methylimidazolium tetrafluoroborate]: the mass density is reported as 1257.8 ± 1.8 kg/m3.
Same read-out and setting: next, `CCn1cc[n+](C)c1.N#C[S-]` [1-ethyl-3-methylimidazolium thiocyanate]: 1097.3 ± 1.3 kg/m3; `CCn1cc[n+](C)c1.CS(=O)(=O)[O-]` [1-ethyl-3-methylimidazolium methanesulfonate]: 1221.5 ± 1.7 kg/m3; `CCC[N+]1(C)CCCC1.O=S(=O)([N-]S(=O)(=O)C(F)(F)F)C(F)(F)F`: 1400.4 ± 2.3 kg/m3.

Staying with this data set, now noted: 333.15 K; 101.33 kPa; Liquid; Vibrating tube method.
With `CCn1cc[n+](C)c1.O=S(=O)([N-]S(=O)(=O)C(F)(F)F)C(F)(F)F`, the mass density worked out at 1483.4 ± 2.6 kg/m3.
On the same count and under the same terms, next, `CCOS(=O)(=O)[O-].CCn1cc[n+](C)c1` [1-ethyl-3-methylimidazolium ethyl sulfate]: 1214.2 ± 1.7 kg/m3.
Same read-out and setting: next, `CCCCn1cc[n+](C)c1.O=S(=O)([N-]S(=O)(=O)C(F)(F)C(F)(F)C(F)(F)C(F)(F)F)C(F)(F)C(F)(F)C(F)(F)C(F)(F)F`: 1570 ± 2.9 kg/m3.
In the case of `CCn1cc[n+](C)c1.N#C[B-](C#N)(C#N)C#N` [1-ethyl-3-methylimidazolium tetracyanoborate], the mass density stood at 1001.3 ± 1.1 kg/m3.
Turning to `CCn1cc[n+](C)c1.N#CN=C=[N-]` [1-ethyl-3-methylimidazolium dicyanamide], the mass density was determined as 1078.3 ± 1.3 kg/m3.
With `CCn1cc[n+](C)c1.O=S(=O)([O-])O` [1-ethyl-3-methylimidazolium hydrogen sulfate], the mass density is recorded as 1345.4 ± 2.1 kg/m3.
Same read-out and setting: next, `CCn1cc[n+](C)c1.F[B-](F)(F)F` [1-ethyl-3-methylimidazolium tetrafluoroborate]: 1254 ± 1.8 kg/m3; `CCn1cc[n+](C)c1.N#C[S-]` [1-ethyl-3-methylimidazolium thiocyanate]: 1094.4 ± 1.3 kg/m3; `CCn1cc[n+](C)c1.CS(=O)(=O)[O-]` [1-ethyl-3-methylimidazolium methanesulfonate]: 1218.1 ± 1.7 kg/m3.
In the case of `CCC[N+]1(C)CCCC1.O=S(=O)([N-]S(=O)(=O)C(F)(F)F)C(F)(F)F`, the mass density was 1396 ± 2.3 kg/m3.

Staying with this data set, now noted: 338.15 K; 101.33 kPa; Liquid; Vibrating tube method.
`CCn1cc[n+](C)c1.O=S(=O)([N-]S(=O)(=O)C(F)(F)F)C(F)(F)F`: the mass density was found to be 1478.5 ± 2.6 kg/m3.
Still for that read-out and setting: to `CCOS(=O)(=O)[O-].CCn1cc[n+](C)c1` [1-ethyl-3-methylimidazolium ethyl sulfate] belongs 1210.9 ± 1.7 kg/m3; to `CCCCn1cc[n+](C)c1.O=S(=O)([N-]S(=O)(=O)C(F)(F)C(F)(F)C(F)(F)C(F)(F)F)C(F)(F)C(F)(F)C(F)(F)C(F)(F)F`, 1564.2 ± 2.9 kg/m3; to `CCn1cc[n+](C)c1.N#C[B-](C#N)(C#N)C#N` [1-ethyl-3-methylimidazolium tetracyanoborate], 997.4 ± 1.1 kg/m3.
Still for that read-out and setting: next, `CCn1cc[n+](C)c1.N#CN=C=[N-]` [1-ethyl-3-methylimidazolium dicyanamide]: 1075.2 ± 1.3 kg/m3; `CCn1cc[n+](C)c1.O=S(=O)([O-])O` [1-ethyl-3-methylimidazolium hydrogen sulfate]: 1342.4 ± 2.1 kg/m3; `CCn1cc[n+](C)c1.F[B-](F)(F)F` [1-ethyl-3-methylimidazolium tetrafluoroborate]: 1250.2 ± 1.8 kg/m3.
On the same count and under the same terms, next, `CCn1cc[n+](C)c1.N#C[S-]` [1-ethyl-3-methylimidazolium thiocyanate]: 1091.4 ± 1.3 kg/m3.
Consider `CCn1cc[n+](C)c1.CS(=O)(=O)[O-]` [1-ethyl-3-methylimidazolium methanesulfonate], for which the mass density came to 1214.8 ± 1.7 kg/m3.
The same measure, in the same setting: to `CCC[N+]1(C)CCCC1.O=S(=O)([N-]S(=O)(=O)C(F)(F)F)C(F)(F)F` belongs 1391.6 ± 2.3 kg/m3.

The same data set, now with this note: 343.15 K; 101.33 kPa; Liquid; Vibrating tube method.
For the compound `CCn1cc[n+](C)c1.O=S(=O)([N-]S(=O)(=O)C(F)(F)F)C(F)(F)F`, the mass density was 1473.6 ± 2.5 kg/m3.
The same measure, in the same setting: to `CCOS(=O)(=O)[O-].CCn1cc[n+](C)c1` [1-ethyl-3-methylimidazolium ethyl sulfate] belongs 1207.6 ± 1.7 kg/m3.
On the same count and under the same terms, next, `CCCCn1cc[n+](C)c1.O=S(=O)([N-]S(=O)(=O)C(F)(F)C(F)(F)C(F)(F)C(F)(F)F)C(F)(F)C(F)(F)C(F)(F)C(F)(F)F`: 1558.4 ± 2.9 kg/m3; `CCn1cc[n+](C)c1.N#C[B-](C#N)(C#N)C#N` [1-ethyl-3-methylimidazolium tetracyanoborate]: 993.6 ± 1.1 kg/m3; `CCn1cc[n+](C)c1.N#CN=C=[N-]` [1-ethyl-3-methylimidazolium dicyanamide]: 1072 ± 1.3 kg/m3.
Consider `CCn1cc[n+](C)c1.O=S(=O)([O-])O` [1-ethyl-3-methylimidazolium hydrogen sulfate], for which the mass density worked out at 1339.4 ± 2.1 kg/m3.
As to `CCn1cc[n+](C)c1.F[B-](F)(F)F` [1-ethyl-3-methylimidazolium tetrafluoroborate], the mass density was found to be 1246.5 ± 1.8 kg/m3.
Still for that read-out and setting: next, `CCn1cc[n+](C)c1.N#C[S-]` [1-ethyl-3-methylimidazolium thiocyanate]: 1088.4 ± 1.3 kg/m3.
Same read-out and setting: to `CCn1cc[n+](C)c1.CS(=O)(=O)[O-]` [1-ethyl-3-methylimidazolium methanesulfonate] belongs 1211.5 ± 1.7 kg/m3; to `CCC[N+]1(C)CCCC1.O=S(=O)([N-]S(=O)(=O)C(F)(F)F)C(F)(F)F`, 1387.2 ± 2.2 kg/m3.

The same data set, now with this note: 348.15 K; 101.33 kPa; Liquid; Vibrating tube method.
Take `CCn1cc[n+](C)c1.O=S(=O)([N-]S(=O)(=O)C(F)(F)F)C(F)(F)F`: the mass density worked out at 1468.7 ± 2.5 kg/m3.
`CCOS(=O)(=O)[O-].CCn1cc[n+](C)c1` [1-ethyl-3-methylimidazolium ethyl sulfate]: the mass density was determined as 1204.2 ± 1.7 kg/m3.
`CCCCn1cc[n+](C)c1.O=S(=O)([N-]S(=O)(=O)C(F)(F)C(F)(F)C(F)(F)C(F)(F)F)C(F)(F)C(F)(F)C(F)(F)C(F)(F)F`: the mass density came out at 1552.6 ± 2.8 kg/m3.
The same measure, in the same setting: to `CCn1cc[n+](C)c1.N#C[B-](C#N)(C#N)C#N` [1-ethyl-3-methylimidazolium tetracyanoborate] belongs 989.8 ± 1.1 kg/m3; to `CCn1cc[n+](C)c1.N#CN=C=[N-]` [1-ethyl-3-methylimidazolium dicyanamide], 1068.9 ± 1.3 kg/m3.
On the same count and under the same terms, next, `CCn1cc[n+](C)c1.O=S(=O)([O-])O` [1-ethyl-3-methylimidazolium hydrogen sulfate]: 1336.4 ± 2.1 kg/m3.
In the case of `CCn1cc[n+](C)c1.F[B-](F)(F)F` [1-ethyl-3-methylimidazolium tetrafluoroborate], the mass density is 1242.8 ± 1.8 kg/m3.
The same measure, in the same setting: to `CCn1cc[n+](C)c1.N#C[S-]` [1-ethyl-3-methylimidazolium thiocyanate] belongs 1085.5 ± 1.3 kg/m3.
The same measure, in the same setting: to `CCn1cc[n+](C)c1.CS(=O)(=O)[O-]` [1-ethyl-3-methylimidazolium methanesulfonate] belongs 1208.1 ± 1.7 kg/m3.
Take `CCC[N+]1(C)CCCC1.O=S(=O)([N-]S(=O)(=O)C(F)(F)F)C(F)(F)F`: the mass density was found to be 1382.9 ± 2.2 kg/m3.

The data set is the same for the next values; noted with them: 353.15 K; 101.33 kPa; Liquid; Vibrating tube method.
For `CCn1cc[n+](C)c1.O=S(=O)([N-]S(=O)(=O)C(F)(F)F)C(F)(F)F`, the mass density was found to be 1463.9 ± 2.5 kg/m3.
The same measure, in the same setting: to `CCOS(=O)(=O)[O-].CCn1cc[n+](C)c1` [1-ethyl-3-methylimidazolium ethyl sulfate] belongs 1200.9 ± 1.6 kg/m3.
With `CCCCn1cc[n+](C)c1.O=S(=O)([N-]S(=O)(=O)C(F)(F)C(F)(F)C(F)(F)C(F)(F)F)C(F)(F)C(F)(F)C(F)(F)C(F)(F)F`, the mass density worked out at 1546.8 ± 2.8 kg/m3.
Consider `CCn1cc[n+](C)c1.N#C[B-](C#N)(C#N)C#N` [1-ethyl-3-methylimidazolium tetracyanoborate], for which the mass density turned out to be 986 ± 1.1 kg/m3.
Same read-out and setting: next, `CCn1cc[n+](C)c1.N#CN=C=[N-]` [1-ethyl-3-methylimidazolium dicyanamide]: 1065.8 ± 1.3 kg/m3; `CCn1cc[n+](C)c1.O=S(=O)([O-])O` [1-ethyl-3-methylimidazolium hydrogen sulfate]: 1333.4 ± 2.1 kg/m3.
Consider `CCn1cc[n+](C)c1.F[B-](F)(F)F` [1-ethyl-3-methylimidazolium tetrafluoroborate], for which the mass density amounted to 1239.2 ± 1.8 kg/m3.
Same read-out and setting: next, `CCn1cc[n+](C)c1.N#C[S-]` [1-ethyl-3-methylimidazolium thiocyanate]: 1082.6 ± 1.3 kg/m3; `CCn1cc[n+](C)c1.CS(=O)(=O)[O-]` [1-ethyl-3-methylimidazolium methanesulfonate]: 1204.8 ± 1.7 kg/m3; `CCC[N+]1(C)CCCC1.O=S(=O)([N-]S(=O)(=O)C(F)(F)F)C(F)(F)F`: 1378.6 ± 2.2 kg/m3.
